Source: patent publication US20230083012A1, “DIHYDROPYRIMIDINE DERIVATIVES AND USES THEREOF IN THE TREATMENT OF HBV INFECTION OR OF HBV-INDUCED DISEASES” (priority 2019, published 2023)

Legend:
HBV = test: Anti-HBV activity in HepG2.2.15 cells (HBV DNA in culture medium by qPCR); format: cell-based; settings: Hepatitis B virus, HepG2.2.15, 144 h, HepG2.2.15 cells, 6 days treatment, HBV DNA in culture medium quantified by real-time PCR; read-out: EC50
Protocol: Example 2: Anti-Viral Assay in HepG2.2.15 Cells
(§1) HepG2.2.15 (the HepG2.2.15 cell line can be produced by transfection of the HepG2 cell line as described in Sells, Chen, and Acs 1987 (Proc. Natl. Acad. Sci. USA 84: 1005-1009), and the HepG2 cell line is available from ATCC® under number HIB-8065™)
(§2) HepG2.2.15 cells were plated into 96-well plate in 2% FBS culture medium at the density of 40,000 cells/well and 5,000 cells/well for HBV inhibitory activity and cytotoxicity determination, respectively. After incubation at 37° C., 5% CO2 overnight, cells were treated with medium containing compounds for 6 days with medium and compounds refreshed after 3 days of treatment. Each compound was tested in a 1:3 serial dilutions at 8 different concentrations in triplicate. The highest concentration of the compounds was 10 uM or 1 uM for anti-HBV activity assay and 100 uM for cytotoxicity determination.
The change of HBV DNA level induced by the compounds was assessed by quantitative real-time polymerase chain reaction (qPCR). Briefly, the HBV DNA in the culture medium was extracted using QIAamp 96 DNA Blood Kit according to the manual and then quantified by real-time PCR assay using the primers and probe in the table 2 below.
(§3) 2) DATA Analysis EC50 and CC50 values are calculated by the GRAPTIPAD PRISM software.

[1] = Cytotoxicity determination in HepG2.2.15 cells (CCK-8 cell viability); format: cell-based; settings: human, 6 days treatment, CCK-8 assay, highest concentration 100 uM
Protocol: as §1, §2
Cell viability was determined by CCK-8 assay. After 6 days of compounds treatment, 20 μl CCK-8 reagents were added to each well of cytotoxicity assay plates. Cell plates were incubated at 37° C., 5% CO2 for 2.5 h. The absorbance at 450 nm wavelength and the absorbance at 630 nm wavelength as reference was measured.
as §3

SMILES: CCOC(=O)C1=C(CN2CC(F)(F)[C@H]3CN(C(C)C(=O)O)C[C@H]32)NC(c2nccs2)=N[C@H]1c1cccc(F)c1C (single isomer, unassigned) [Compound 14B]
- EC50 (HBV): 102 nM
- CC50 at 6 days [1]: 67900 nM

SMILES: CCOC(=O)C1=C(CN2CC(F)(F)[C@H]3CN([C@H](C)C(=O)O)C[C@H]32)NC(c2nccs2)=N[C@H]1c1cccc(F)c1C (single isomer, unassigned) [Compound 14E]
- EC50 (HBV): 62.3 nM
- CC50 at 6 days [1]: 85300 nM

SMILES: CCOC(=O)C1=C(CN2CC(F)(F)[C@H]3CN([C@@H](C)C(=O)O)C[C@H]32)NC(c2nccs2)=N[C@H]1c1cccc(F)c1C (single isomer, unassigned) [Compound 14F]
- EC50 (HBV): 125 nM
- CC50 at 6 days [1]: > 100000 nM

SMILES: CCOC(=O)C1=C(CN2CC(F)(F)[C@H]3CN(CC(C)C(=O)O)C[C@H]32)NC(c2nccs2)=N[C@H]1c1cccc(F)c1C (single isomer, unassigned) [Compound 15B]
- EC50 (HBV): 27.2 nM
- CC50 at 6 days [1]: > 100000 nM

SMILES: CCOC(=O)C1=C(CN2CC(F)(F)[C@H]3CN(C[C@@H](C)C(=O)O)C[C@H]32)NC(c2nccs2)=N[C@H]1c1cccc(F)c1C (single isomer, unassigned) [Compound 15E]
- EC50 (HBV): 22.5 nM
- CC50 at 6 days [1]: 41700 nM

SMILES: CCOC(=O)C1=C(CN2CC(F)(F)[C@H]3CN(C[C@H](C)C(=O)O)C[C@H]32)NC(c2nccs2)=N[C@H]1c1cccc(F)c1C (single isomer, unassigned) [Compound 15F]
- EC50 (HBV): 16.1 nM
- CC50 at 6 days [1]: 39000 nM

SMILES: CCOC(=O)C1=C(CN2CC(F)(F)[C@@H]3CN(CC4(C(=O)O)CC4)C[C@@H]32)NC(c2nccs2)=N[C@H]1c1cccc(F)c1C (single isomer, unassigned) [Compound 16B]
- EC50 (HBV): 68.6 nM
- CC50 at 6 days [1]: > 100000 nM

SMILES: CCOC(=O)C1=C(CN2CC(F)(F)[C@@H]3CN(CCC(C)(C)C(=O)O)C[C@@H]32)NC(c2nccs2)=N[C@H]1c1cccc(F)c1C (single isomer, unassigned) [Compound 17B]
- EC50 (HBV): 123 nM
- CC50 at 6 days [1]: 72800 nM

SMILES: CCOC(=O)C1=C(CN2CC(F)(F)[C@H]3CN([C@H]4C[C@H](C(=O)O)C4)C[C@H]32)NC(c2nccs2)=N[C@H]1c1cccc(F)c1C (single isomer, unassigned) [Compound 18A]
- EC50 (HBV): 61.1 nM
- CC50 at 6 days [1]: 66300 nM

SMILES: CCOC(=O)C1=C(CN2CC(F)(F)[C@H]3CN([C@H]4C[C@@H](C(=O)O)C4)C[C@H]32)NC(c2nccs2)=N[C@H]1c1cccc(F)c1C (single isomer, unassigned) [Compound 18B]
- EC50 (HBV): 73.7 nM
- CC50 at 6 days [1]: 64200 nM

SMILES: COC(=O)C1=C(CN2CC(F)(F)C3CN(CC(C)(C)C(=O)O)CC32)NC(c2nccs2)=N[C@H]1c1cccc(F)c1C (single isomer, unassigned) [Compound 19B, 3-((cis)-3,3-difluoro-1-((6-(3-fluoro-2-methylphenyl)-5-(methoxycarbonyl)-2-(thiazol-2-yl)-3,6-dihydropyrimidin-4-yl)methyl)hexahydropyrrolo[3,4-b]pyrrol-5(1H)-yl)-2,2-dimethylpropanoic acid]
- EC50 (HBV): 49.3 nM
- CC50 at 6 days [1]: 24200 nM

SMILES: COC(=O)C1=C(CN2CC(F)(F)[C@@H]3CN(CC(C)(C)C(=O)O)C[C@@H]32)NC(c2nccs2)=N[C@H]1c1ccc(F)cc1Cl (single isomer, unassigned) [Compound 20B, 3-((cis)-1-((6-(2-chloro-4-fluorophenyl)-5-(methoxycarbonyl)-2-(thiazol-2-yl)-3,6-dihydropyrimidin-4-yl)methyl)-3,3-difluorohexahydropyrrolo[3,4-b]pyrrol-5(1H)-yl)-2,2-dimethylpropanoic acid]
- EC50 (HBV): 39.5 nM
- CC50 at 6 days [1]: > 100000 nM

SMILES: COC(=O)C1=C(CN2CC(F)(F)[C@@H]3CN(CC(C)(C)C(=O)O)C[C@@H]32)NC(c2nccs2)=N[C@H]1c1ccc(F)c(F)c1Cl (single isomer, unassigned) [Compound 21B, 3-((cis)-1-((6-(2-chloro-3,4-difluorophenyl)-5-(methoxycarbonyl)-2-(thiazol-2-yl)-3,6-dihydropyrimidin-4-yl)methyl)-3,3-difluorohexahydropyrrolo[3,4-b]pyrrol-5(1H)-yl)-2,2-dimethylpropanoic acid]
- EC50 (HBV): 22.7 nM
- CC50 at 6 days [1]: 97300 nM

SMILES: CCOC(=O)C1=C(CN2CC(F)(F)[C@@H]3CN(CC(C)(C)C(=O)O)C[C@@H]32)NC(c2nccs2)=N[C@H]1c1cccc(F)c1Cl (single isomer, unassigned) [Compound 22B, 3-((cis)-1-((6-(2-chloro-3-fluorophenyl)-5-(ethoxycarbonyl)-2-(thiazol-2-yl)-3,6-dihydropyrimidin-4-yl)methyl)-3,3-difluorohexahydropyrrolo[3,4-b]pyrrol-5(1H)-yl)-2,2-dimethylpropanoic acid]
- EC50 (HBV): 8.9 nM
- CC50 at 6 days [1]: 70400 nM

SMILES: CCOC(=O)C1=C(CN2CC(F)(F)[C@@H]3CN(C(=O)CC(C)(C)C(=O)O)C[C@@H]32)NC(c2nccs2)=N[C@H]1c1cccc(F)c1C (single isomer, unassigned) [Compound 23B]
- EC50 (HBV): 24 nM
- CC50 at 6 days [1]: 30200 nM

SMILES: CCOC(=O)C1=C(CN2CC[C@]3(F)CN(CC(C)(C)C(=O)O)C(=O)[C@H]23)NC(c2nccs2)=N[C@H]1c1cccc(F)c1C (single isomer, unassigned) [Compound 24A]
- EC50 (HBV): 221 nM
- CC50 at 6 days [1]: 48500 nM

SMILES: CCOC(=O)C1=C(CN2CC[C@H]3C(=O)N(CC(C)(C)C(=O)O)C[C@H]32)NC(c2nccs2)=N[C@H]1c1cccc(F)c1C (single isomer, unassigned) [Compound 25A]
- EC50 (HBV): 32.4 nM
- CC50 at 6 days [1]: 74500 nM

SMILES: CCOC(=O)C1=C(CN2CC(F)(F)[C@H]3[C@@H]2CCN3[C@H](C)C(=O)O)NC(c2nccs2)=N[C@H]1c1cccc(F)c1C (single isomer, unassigned) [Compound 26E]
- EC50 (HBV): 5.2 nM
- CC50 at 6 days [1]: 28100 nM

SMILES: CCOC(=O)C1=C(CN2CC(F)(F)[C@H]3[C@@H]2CCN3[C@@H](C)C(=O)O)NC(c2nccs2)=N[C@H]1c1cccc(F)c1C (single isomer, unassigned) [Compound 26F]
- EC50 (HBV): 14.8 nM
- CC50 at 6 days [1]: 41700 nM

SMILES: COC(=O)C1=C(CN2CC(F)(F)[C@@H]3C(=O)N(CC(C)(C)C(=O)O)C[C@@H]32)NC(c2nccs2)=N[C@H]1c1ccc(F)cc1Cl (single isomer, unassigned) [Compound 28, 3-((cis)-1-((6-(2-chloro-4-fluorophenyl)-5-(methoxycarbonyl)-2-(thiazol-2-yl)-3,6-dihydropyrimidin-4-yl)methyl)-3,3-difluoro-4-oxohexahydropyrrolo[3,4-b]pyrrol-5(1H)-yl)-2,2-dimethylpropanoic acid]
- EC50 (HBV): 28.2 nM
- CC50 at 6 days [1]: > 100000 nM

SMILES: COC(=O)C1=C(CN2CC(F)(F)[C@@H]3C(=O)N(CC(C)(C)C(=O)O)C[C@@H]32)NC(c2nccs2)=N[C@H]1c1cccc(F)c1Cl (single isomer, unassigned) [Compound 29, 3-((cis)-1-((6-(2-chloro-3-fluorophenyl)-5-(methoxycarbonyl)-2-(thiazol-2-yl)-3,6-dihydropyrimidin-4-yl)methyl)-3,3-difluoro-4-oxohexahydropyrrolo[3,4-b]pyrrol-5(1H)-yl)-2,2-dimethylpropanoic acid]
- EC50 (HBV): 13.5 nM
- CC50 at 6 days [1]: > 100000 nM

SMILES: CCOC(=O)C1=C(CN2CC(F)(F)[C@H]3[C@@H]2CCN3C(=O)[C@H]2CC[C@H](C(=O)O)CC2)NC(c2nccs2)=N[C@H]1c1cccc(F)c1C (single isomer, unassigned) [Compound 30]
- EC50 (HBV): 81.3 nM
- CC50 at 6 days [1]: 28000 nM
